Data published in patent publication US20220041681A1 (MEDIMMUNE LIMITED, priority 2016, published 2022).

Test system: overweight or obese subjects with type 2 diabetes mellitus (T2DM)
Test: Multiple-ascending dose study Part II (Cohorts 5 and 6)
Assay type: in vivo, human
Conditions: for Fasting Glucose (change) / Glucose AUG (change) / Weight (change): n = 12 active
Protocol: A randomized, double-blind, multiple-ascending dose study is performed. This study consists of 2 cohorts: cohort 5 and cohort 6.
The study consists of an inpatient up-titration evaluation period beginning on Day 3 for both Cohorts 5 and 6 and an outpatient follow-up period. The first 4 days and the final day of dosing at 300 μg are inpatient.
Subjects have a second inpatient period for the initiation of the 300 μg dose ending on the fourth day at that dose followed by at-home self administration.
Additional time points include before commencing the 300 μg dose (Day 16 for Cohort 5 and Day 11 for Cohort 6), and at the end of dosing (Day 22 for Cohort 5 and Day 17 for Cohort 6).

CCCCCCCCCCCCCCCC(=O)N[C@@H](CCC(=O)NCCCC[C@H](NC(=O)[C@H](CC(=O)O)NC(=O)[C@H](CO)NC(=O)C(NC(=O)[C@H](Cc1ccccc1)NC(=O)C(NC(=O)CNC(=O)[C@H](CCC(N)=O)NC(=O)[C@H](CO)NC(=O)[C@@H](N)Cc1cnc[nH]1)[C@@H](C)O)[C@@H](C)O)C(=O)N[C@@H](CO)C(=O)N[C@@H](CCC(=O)O)C(=O)N[C@@H](Cc1ccc(O)cc1)C(=O)N[C@@H](CC(C)C)C(=O)N[C@@H](CC(=O)O)C(=O)N[C@@H](CO)C(=O)N[C@@H](CCC(=O)O)C(=O)N[C@@H](CCCNC(=N)N)C(=O)N[C@@H](C)C(=O)N[C@@H](CCCNC(=N)N)C(=O)N[C@@H](CC(=O)O)C(=O)N[C@@H](Cc1ccccc1)C(=O)N[C@H](C(=O)N[C@@H](C)C(=O)N[C@@H](Cc1c[nH]c2ccccc12)C(=O)N[C@@H](CC(C)C)C(=O)N[C@@H](CCC(=O)O)C(=O)N[C@@H](C)C(=O)NCC(=O)NCC(=O)O)C(C)C)C(=O)O (stereo partly drawn) [Peptide G933]
glucose AUC reduction (Cohort 5 (100/150/200/300 μg, 22 days)): 41.7%
Fasting Glucose (change) (Cohort 5, 300 ug): -24.40 mg/dL
Glucose AUG (change) (Cohort 5, 300 ug): −33.7
Weight (change) (Cohort 5, 300 ug, difference to placebo after 22 days): -2.11 kg
weight loss difference vs placebo (Cohort 5, 22 days): 2.11 kg
heart rate increase from baseline (Cohort 5, 22 days administration): approximately 7.6 BPM
weight lost (Cohort 5, after 22 days): about 3.09 kg
glucose AUC reduction (Cohort 6 (100/200/300 μg, 17 days)): 35.8%
Fasting Glucose (change) (Cohort 6, 300 ug): -36.94 mg/dL
Glucose AUG (change) (Cohort 6, 300 ug): −28.9
Weight (change) (Cohort 6, 300 ug, difference to placebo after 17 days): -1.88 kg
patients who vomited (Cohort 6, 1 patient): 8.3%
weight loss difference vs placebo (Cohort 6, 17 days): 1.88 kg
heart rate increase from baseline (Cohort 6, 17 days administration): approximately 5.9 BPM
weight lost (Cohort 6, after 17 days): about 2.23 kg
deaths or serious adverse events (Cohorts 5 and 6): No deaths or serious adverse events were observed
rate of vomiting (Cohorts 5 and 6 together, 4/24): 16%
rate of nausea (Cohorts 5 and 6 together, 8/24): 33%
